Molecular target: T1, Insulin-Degrading Enzyme (IDE) (Homo sapiens, UniProt P14735)
T1 sequence (P14735 42-1019): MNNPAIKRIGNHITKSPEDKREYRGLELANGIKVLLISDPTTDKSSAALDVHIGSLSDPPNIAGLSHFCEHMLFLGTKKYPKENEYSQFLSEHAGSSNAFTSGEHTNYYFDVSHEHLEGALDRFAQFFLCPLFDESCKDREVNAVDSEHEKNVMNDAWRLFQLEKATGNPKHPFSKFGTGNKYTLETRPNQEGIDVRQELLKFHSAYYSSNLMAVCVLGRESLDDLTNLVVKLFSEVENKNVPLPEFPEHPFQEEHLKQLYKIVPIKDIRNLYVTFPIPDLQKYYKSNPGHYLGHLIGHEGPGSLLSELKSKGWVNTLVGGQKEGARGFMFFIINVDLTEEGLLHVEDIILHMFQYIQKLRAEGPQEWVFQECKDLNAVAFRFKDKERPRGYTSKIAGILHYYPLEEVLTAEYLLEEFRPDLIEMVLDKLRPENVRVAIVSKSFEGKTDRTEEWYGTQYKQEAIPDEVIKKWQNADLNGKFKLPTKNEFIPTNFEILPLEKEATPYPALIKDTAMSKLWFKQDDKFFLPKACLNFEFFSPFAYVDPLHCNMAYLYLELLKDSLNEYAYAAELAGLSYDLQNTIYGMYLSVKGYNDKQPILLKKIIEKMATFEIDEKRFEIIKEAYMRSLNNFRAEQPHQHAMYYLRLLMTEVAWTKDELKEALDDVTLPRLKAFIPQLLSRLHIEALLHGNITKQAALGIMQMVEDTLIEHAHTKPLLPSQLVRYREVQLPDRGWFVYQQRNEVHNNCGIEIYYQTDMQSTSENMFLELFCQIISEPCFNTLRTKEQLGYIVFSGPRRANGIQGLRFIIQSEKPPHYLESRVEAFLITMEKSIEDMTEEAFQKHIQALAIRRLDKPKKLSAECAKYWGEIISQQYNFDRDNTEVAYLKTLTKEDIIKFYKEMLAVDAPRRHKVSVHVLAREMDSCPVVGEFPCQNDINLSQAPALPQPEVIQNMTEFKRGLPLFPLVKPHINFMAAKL
Experiment: fluorogenic peptide hydrolysis by purified IDE, two-site kinetic fit; LC-MS of insulin hydrolysis (about […] decrease)
Assay type: biochemical

Kd: 130 nM
Compound: CC(C)C[C@H](NC(=O)[C@H](CCc1ccccc1)NC(=O)CN1CCOCC1)C(=O)N[C@@H](Cc1ccccc1)C(=O)N[C@@H](CC(C)C)C(=O)[C@@]1(C)CO1 [CFZ, Carfilzomib]
